Experimental data as given in US10647675B2 (priority 2015, dated 2020).
Values after ≈ are worked out from the molar mass of the structure shown.

Columns and labels:
[1] = system: Trichophyton mentagrophytes SM-110; test: Antifungal activity evaluation test: minimum inhibitory concentration (MIC), broth dilution by reference to CLSI M38-A2; format: cell-based; conditions: SM110, read-out: MIC (T. menta.)
Method in brief: (§1)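 Broth microdilution after CLSI M38-A2: 2-fold DMSO dilution series in MOPS-buffered RPMI 1640 pH 7.0, inoculum 2×10^3 cells/mL final. Incubated 35° C for 4 days; MIC (μg/mL) is lowest concentration giving visually ≥80% growth inhibition versus growth control.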

[2] = system: Trichophyton rubrum KD-1130; test: as above; format: cell-based; conditions: KD1130, read-out: MIC (T. rubrum)
Method in brief: as §1

Compound	MIC [1] [µg/mL]	MIC [2] [µg/mL]
CCc1ccc(Oc2ncccc2-c2cnccc2Cl)cc1 [I-290, 4′-chloro-2-(4-ethylphenoxy)-3,3′-bipyridine]	≤ 0.1	≤ 0.1
COc1ccncc1-c1cccnc1Oc1ccc(OCc2ccccc2)nc1 [I-177, 2-{[6-(benzyloxy)pyridin-3-yl]oxy}-4′-methoxy-3,3′-bipyridine]	≤ 0.1	≤ 0.1
CC(F)(F)c1ccc(Oc2ncccc2-c2nccc3ccccc23)cn1 [I-112, 1-(2-{[6-(1,1-difluoroethyl)pyridin-3-yl]oxy}-3-yl)isoquinoline]	0.2 to 0.78 (≈ 0.55 to 2.15 µM)	0.2 to 0.78 (≈ 0.55 to 2.15 µM)
CCc1ccc(Oc2ncccc2-c2cncc(C)c2OC)cc1 [I-286, 2-(4-ethylphenoxy)-4′-methoxy-5′-methyl-3,3′-bipyridine]	≤ 0.1	≤ 0.1
COc1ncccc1-c1nccnc1Oc1ccc2c(c1)CCCC2 [I-316, 2-(2-methoxypyridin-3-yl)-3-[(5,6,7,8-tetrahydronaphthalen-2-yl)oxy]pyrazine]	≤ 0.1	≤ 0.1
CCOC(=O)c1ccc(Oc2ncccc2-c2cnccc2OC)cc1 [I-245]	≤ 0.1	≤ 0.1
COc1ccncc1-c1nccnc1Oc1ccc2c(c1)CCCC2 [I-317, 2-(4-methoxypyridin-3-yl)-3-[(5,6,7,8-tetrahydronaphthalen-2-yl)oxy]pyrazine]	≤ 0.1	≤ 0.1
CCc1ccc(Oc2ncccc2-c2cnccc2CC)cc1 [I-291, 4′-ethyl-2-(4-ethylphenoxy)-3,3′-bipyridine]	≤ 0.1	≤ 0.1
Fc1cncc(-c2cccnc2Oc2ccc(C(F)(F)F)cc2)c1Cl [I-207, 4′-chloro-5′-fluoro-2-[4-(trifluoromethyl)phenoxy]-3,3′-bipyridine]	≤ 0.1	≤ 0.1
CCc1cccc(Oc2ncccc2-c2cnccc2OC)c1 [I-265, 2-(3-ethylphenoxy)-4′-methoxy-3,3′-bipyridine]	0.2 to 0.78 (≈ 0.653 to 2.55 µM)	0.2 to 0.78 (≈ 0.653 to 2.55 µM)
COc1cc(F)ccc1-c1cccnc1Oc1cnc(N(C)C)nc1 [I-185, 5-{[3-(4-fluoro-2-methoxyphenyl)pyridin-2-yl]oxy}-N,N-dimethylpyrimidin-2-amine]	≤ 0.1	≤ 0.1
COc1ccccc1-c1cccnc1Oc1cnc(N(C)Cc2ccccc2)nc1 [I-339, N-benzyl-5-{[3-(2-methoxyphenyl)pyridin-2-yl]oxy}-N-methylpyrimidin-2-amine]	≤ 0.1	≤ 0.1
COc1ccccc1-c1cccnc1Oc1ccc(C(F)(F)Cn2cccn2)nc1 [I-350, 2-({6-[1,1-difluoro-2-(1H-pyrazol-1-yl)ethyl]pyridin-3-yl}oxy)-3-(2-methoxyphenyl)pyridine]	≤ 0.1	≤ 0.1
Cc1ncccc1-c1cccnc1Oc1ccc(C(F)(F)F)nc1 [I-24, 2-methyl-2′-{[6-(trifluoromethyl)pyridin-3-yl]oxy}-3,3′-bipyridine]	1.56 to 6.25 (≈ 4.71 to 18.9 µM)	1.56 to 6.25 (≈ 4.71 to 18.9 µM)
Cc1cc(Oc2ncccc2-c2cccc3ccnn23)ccc1C(F)F [I-462]	≤ 0.1	≤ 0.1
COc1ncccc1-c1cccnc1Oc1ccc2c(c1)CCC2 [I-270, 2-[(2,3-dihydro-1H-inden-5-yl)oxy]-2′-methoxy-3,3′-bipyridine]	≤ 0.1	≤ 0.1
FC(F)(F)c1ccc(Oc2ncccc2-c2cccc3cccnc23)cn1 [I-34, 8-(2-{[6-(trifluoromethyl)pyridin-3-yl]oxy}pyridin-3-yl)quinoline]	≤ 0.1	≤ 0.1
COc1c(F)cccc1-c1cccnc1Oc1ccc(C(F)(F)F)nc1 [I-13, 3-(3-fluoro-2-methoxyphenyl)-2-{[6-(trifluoromethyl)pyridin-3-yl]oxy}pyridine]	≤ 0.1	≤ 0.1
FC(F)(F)c1ccc(Nc2ncncc2-c2cccc3ccnn23)cc1 [I-362, 5-(pyrazolo[1,5-a]pyridin-7-yl)-N-[4-(trifluoromethyl)phenyl]pyrimidin-4-amine]	≤ 0.1	≤ 0.1
CCCCN(C)c1ncc(Oc2ncccc2-c2cnccc2OC)cn1 [I-384]	≤ 0.1	≤ 0.1
Cc1cnn(-c2ccc(Oc3ncccc3-c3cnccc3C)cc2)c1 [I-432]	≤ 0.1	≤ 0.1
COc1ccnc(OC)c1-c1cccnc1Oc1ccc(C(F)(F)F)cc1 [I-203, 2,4-dimethoxy-2′-[4-(trifluoromethyl)phenoxy]-3,3′-bipyridine]	≤ 0.1	≤ 0.1
COc1ccccc1-c1cccnc1Oc1ccc(Cl)cc1 [I-199, 2-(4-chlorophenoxy)-3-(2-methoxyphenyl)pyridine]	≤ 0.1	≤ 0.1
COc1ccncc1-c1cccnc1Oc1ccc(C(F)(F)F)nc1 [I-28, 4′-methoxy-2-{[6-(trifluoromethyl)pyridin-3-yl]oxy}-3,3′-bipyridine]	0.2 to 0.78 (≈ 0.576 to 2.25 µM)	0.2 to 0.78 (≈ 0.576 to 2.25 µM)
COc1c(F)cncc1-c1cccnc1Oc1ccc(C(F)F)cc1 [I-356, 2-[4-(difluoromethyl)phenoxy]-5′-fluoro-4′-methoxy-3,3′-bipyridine]	≤ 0.1	≤ 0.1

Compound	MIC [1] [µg/mL]	MIC [2] [µg/mL]
COc1ccccc1-c1cccnc1Oc1ccc(CNc2ccccc2)nc1 [I-371, N-[(5-{[3-(2-methoxyphenyl)pyridin-2-yl]oxy}pyridin-2-yl)methyl]aniline]	≤ 0.1	≤ 0.1
CCOc1ccccc1-c1cccnc1Oc1ccc(C(F)(F)F)nc1 [I-17, 3-(2-ethoxyphenyl)-2-{[6-(trifluoromethyl)pyridin-3-yl]oxy}pyridine]	0.2 to 0.78 (≈ 0.555 to 2.16 µM)	0.2 to 0.78 (≈ 0.555 to 2.16 µM)
CC(F)(F)c1ccc(Oc2ncncc2-c2cccc3ccnn23)cc1 [I-333, 7-{4-[4-(1,1-difluoroethyl)phenoxy]pyrimidin-5-yl}pyrazolo[1,5-a]pyridine]	≤ 0.1	≤ 0.1
CC(F)(F)c1ccc(Oc2ncccc2-c2cccnc2-n2cccn2)cn1 [I-107, 2-{[6-(1,1-difluoroethyl)pyridin-3-yl]oxy}-2′-(1H-pyrazol-1-yl)-3,3′-bipyridine]	1.56 to 6.25 (≈ 4.11 to 16.5 µM)	1.56 to 6.25 (≈ 4.11 to 16.5 µM)
COc1c(-c2cccnc2Oc2ccc(C(F)(F)F)cc2)cnn1C [I-223, 3-(5-methoxy-1-methyl-1H-pyrazol-4-yl)-2-[4-(trifluoromethyl)phenoxy]pyridine]	0.2 to 0.78 (≈ 0.573 to 2.23 µM)	0.2 to 0.78 (≈ 0.573 to 2.23 µM)
CCc1ccc(Oc2ncccc2-c2cnccc2OC)cc1C [I-263, 2-(4-ethyl-3-methylphenoxy)-4′-methoxy-3,3′-bipyridine]	≤ 0.1	≤ 0.1
COc1ccncc1-c1cccnc1Oc1ccc(C=O)cc1 [I-246]	1.56 to 6.25 (≈ 5.09 to 20.4 µM)	1.56 to 6.25 (≈ 5.09 to 20.4 µM)
COc1ccccc1-c1cccnc1Oc1cnc(OCc2ccccc2)nc1 [I-380, 2-(benzyloxy)-5-{[3-(2-methoxyphenyl)pyridin-2-yl]oxy}pyrimidine]	≤ 0.1	≤ 0.1
Nc1ccccc1-c1cccnc1Oc1ccc(C(F)(F)F)nc1 [I-61, 2-(2-{[6-(trifluoromethyl)pyridin-3-yl]oxy}pyridin-3-yl)-aniline]	1.56 to 6.25 (≈ 4.71 to 18.9 µM)	1.56 to 6.25 (≈ 4.71 to 18.9 µM)
FC(F)(F)c1ccc(Oc2ncccc2-c2ccnc3cccnc23)cc1 [I-226, 4-{2-[4-(trifluoromethyl)phenoxy]pyridin-3-yl}-1,5-naphthyridine]	≤ 0.1	≤ 0.1
COc1ccncc1-c1cccnc1Oc1ccc(C(C)=O)cc1 [I-244]	1.56 to 6.25 (≈ 4.87 to 19.5 µM)	1.56 to 6.25 (≈ 4.87 to 19.5 µM)
COc1ccccc1-c1cccnc1Oc1ccc(C(F)(F)F)nc1 [I-1, 3-(2-methoxyphenyl)-2-{[6-(trifluoromethyl)pyridin-3-yl]oxy}pyridine]	≤ 0.1	≤ 0.1
COCCN(C)c1ncc(Oc2ncccc2-c2cccc3c2OCC3)cn1 [I-450]	≤ 0.1	≤ 0.1
CCc1ccc(Oc2ncccc2-c2cnccc2OC)c(F)c1 [I-394, 2-(4-ethyl-2-fluorophenoxy)-4′-methoxy-3,3′-bipyridine]	≤ 0.1	≤ 0.1
COc1ncccc1-c1cccnc1Oc1ccc(C(F)(F)F)cc1 [I-202, 2-methoxy-2′-[4-(trifluoromethyl)phenoxy]-3,3′-bipyridine]	≤ 0.1	≤ 0.1
COc1ccccc1-c1cccnc1Oc1cnc(Cl)nc1 [I-338, 2-chloro-5-{[3-(2-methoxyphenyl)pyridin-2-yl]oxy}pyrimidine]	0.2 to 0.78 (≈ 0.637 to 2.49 µM)	0.2 to 0.78 (≈ 0.637 to 2.49 µM)
COc1ccncc1-c1cccnc1Oc1ccc(C)cc1 [I-252, 4′-methoxy-2-(p-tolyloxy)-3,3′-bipyridine]	0.2 to 0.78 (≈ 0.684 to 2.67 µM)	0.2 to 0.78 (≈ 0.684 to 2.67 µM)
CCCN(C)c1ncc(Oc2ncccc2-c2cccc3c2OCC3)cn1 [I-449]	≤ 0.1	≤ 0.1
CCCc1ccc(Oc2ncccc2-c2cnccc2OC)cc1 [I-254, 4′-methoxy-2-(4-propylphenoxy)-3,3′-bipyridine]	≤ 0.1	≤ 0.1
COc1ccc(OC)c(-c2cccnc2Oc2ccc(C(C)(F)F)nc2)c1 [I-84, 2-{[6-(1,1-difluoroethyl)pyridin-3-yl]oxy}-3-(2,5-dimethoxyphenyl)pyridine]	≤ 0.1	≤ 0.1
CCc1ccc(Oc2ncccc2-c2cncc(F)c2OC)cc1 [I-283, 2-(4-ethylphenoxy)-5′-fluoro-4′-methoxy-3,3′-bipyridine]	≤ 0.1	≤ 0.1
COCC(C)(C)c1ccc(Oc2ncccc2-c2cnccc2OC)cc1 [I-275, 4′-methoxy-2-[4-(1-methoxy-2-methylpropan-2-yl)phenoxy]-3,3′-bipyridine]	0.2 to 0.78 (≈ 0.549 to 2.14 µM)	0.2 to 0.78 (≈ 0.549 to 2.14 µM)
FC(F)(F)c1ccc(Oc2ncccc2-c2cccc3nccnc23)cc1 [I-224, 5-{2-[4-(trifluoromethyl)phenoxy]pyridin-3-yl}quinoxaline]	≤ 0.1	≤ 0.1
COc1ccccc1-c1cccnc1Oc1ccc(OCc2ccccc2)nc1 [I-171, 2-{[6-(benzyloxy)pyridin-3-yl]oxy}-3-(2-methoxyphenyl)pyridine]	≤ 0.1	≤ 0.1
